Data as given in patent US20020137929A1, “1 - (3-heterocyclylphenyl) isothiourea, -isourea, -guanidine and -amidine herbicidal agents” (Intellectual Property Department, BASF Aktiengesellschaft, priority 1998, published 2002).

Legend:
ECHCG (Barnyardgrass) [1] = assay: Postemergence herbicidal evaluation; type: in vivo, Echinochloa crus-galli; details: postemergence
How it was run: (§1)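 Two-week seedlings sprayed postemergence at 40 psi; formulation: 1:1 acetone/water, 0.5% TWEEN 20; application ≈0.0156–0.500 kg/ha. Greenhouse grow-out, then 0–9 visual scoring at 4–5 weeks.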

ECHCG (Barnyardgrass) [2] = assay: Preemergence herbicidal evaluation; type: in vivo, Echinochloa crus-galli; details: rated 4-5 weeks after treatment, rating scale 0-9
How it was run: (§2)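 Steps: mix seeds into potting soil; plant atop ~1 inch soil; spray compound in aqueous acetone (~0.0156-0.500 kg/ha equivalent); maintain in greenhouse with watering; rate visually 0-9 versus control at 4-5 weeks.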

[3] = tested on: IPOHE (Morningglory, Ivyleaf); assay: Postemergence herbicidal evaluation; type: in vivo, Ipomoea hederacea; details: postemergence
How it was run: as §1

[4] = tested on: IPOHE (Morningglory, Ivyleaf); assay: Preemergence herbicidal evaluation; type: in vivo, Ipomoea hederacea; details: rated 4-5 weeks after treatment, rating scale 0-9
How it was run: as §2

[5] = tested on: GLXMAW (Soybean, Williams); assay: Preemergence herbicidal evaluation; type: in vivo, Glycine max, (L.) Merr. cv Williams; details: rated 4-5 weeks after treatment, rating scale 0-9
How it was run: as §2

[6] = tested on: CHEAL (Lambsquarters, Common); assay: Preemergence herbicidal evaluation; type: in vivo, Chenopodium album; details: rated 4-5 weeks after treatment, rating scale 0-9
How it was run: as §2

SETVI (Foxtail, Green) = assay: Postemergence herbicidal evaluation; type: in vivo, Setaria viridis; details: postemergence
How it was run: as §1

ABUTH (Velvetleaf) [7] = assay: Preemergence herbicidal evaluation; type: in vivo, Abutilon theophrasti; details: rated 4-5 weeks after treatment, rating scale 0-9
How it was run: as §2

[8] = tested on: TRZAWR (Wheat, Winter, cv Riband); assay: Preemergence herbicidal evaluation; type: in vivo, Triticum aestivum; details: rated 4-5 weeks after treatment, rating scale 0-9
How it was run: as §2

[9] = tested on: CHEAL (Lambsquarters, Common); assay: Postemergence herbicidal evaluation; type: in vivo, Chenopodium album; details: postemergence
How it was run: as §1

ABUTH (Velvetleaf) [10] = assay: Postemergence herbicidal evaluation; type: in vivo, Abutilon theophrasti; details: postemergence
How it was run: as §1

ORYSAT (Rice, Tebonnet) = assay: Postemergence herbicidal evaluation; type: in vivo, Oryza sativa, (L.) Tebonnet; details: postemergence
How it was run: as §1

CASOB (Sicklepod) = assay: Preemergence herbicidal evaluation; type: in vivo, Cassia obtusifolia; details: rated 4-5 weeks after treatment, rating scale 0-9
How it was run: as §2

ZEAMX (Corn, Field) [11] = assay: Preemergence herbicidal evaluation; type: in vivo, Zea mays; details: rated 4-5 weeks after treatment, rating scale 0-9
How it was run: as §2

ZEAMX (Corn, Field) [12] = assay: Postemergence herbicidal evaluation; type: in vivo, Zea mays; details: postemergence
How it was run: as §1

Cn1c(C(F)(F)F)cc(=O)n(-c2cc(N=C3SCC(=O)N3Cc3ccccc3Cl)c(Cl)cc2F)c1=O [Compound 143]
herbicidal rating ECHCG (ECHCG (Barnyardgrass) [1]; rate 0.0156 kg/ha): 1.0 | herbicidal rating ECHCG (ECHCG (Barnyardgrass) [1]; rate 0.0313 kg/ha): 2.0 | herbicidal rating ECHCG (ECHCG (Barnyardgrass) [1]; rate 0.0625 kg/ha): 1.0 | Preemergence herbicidal rating ECHCG (ECHCG (Barnyardgrass) [2]; rate 0.0313 kg/ha): 0.0 | Preemergence herbicidal rating ECHCG (ECHCG (Barnyardgrass) [2]; rate 0.0625 kg/ha): 0.0 | Preemergence herbicidal rating ECHCG (ECHCG (Barnyardgrass) [2]; rate 0.1250 kg/ha): 1.0 | Preemergence herbicidal rating ECHCG (ECHCG (Barnyardgrass) [2]; rate 0.2500 kg/ha): 1.0 | herbicidal rating IPOHE ([3]; rate 0.0156 kg/ha): 9.0 | herbicidal rating IPOHE ([3]; rate 0.0313 kg/ha): 9.0 | herbicidal rating IPOHE ([3]; rate 0.0625 kg/ha): 9.0 | Preemergence herbicidal rating IPOHE ([4]; rate 0.0313 kg/ha): 0.0 | Preemergence herbicidal rating IPOHE ([4]; rate 0.0625 kg/ha): 0.0 | Preemergence herbicidal rating IPOHE ([4]; rate 0.1250 kg/ha): 1.0 | Preemergence herbicidal rating IPOHE ([4]; rate 0.2500 kg/ha): 3.0 | Preemergence herbicidal rating GLXMAW ([5]; rate 0.0313 kg/ha): 0.0 | Preemergence herbicidal rating GLXMAW ([5]; rate 0.0625 kg/ha): 0.0 | Preemergence herbicidal rating GLXMAW ([5]; rate 0.1250 kg/ha): 0.0 | Preemergence herbicidal rating GLXMAW ([5]; rate 0.2500 kg/ha): 1.0 | Preemergence herbicidal rating CHEAL ([6]; rate 0.0313 kg/ha): 7.0 | Preemergence herbicidal rating CHEAL ([6]; rate 0.0625 kg/ha): 7.0 | Preemergence herbicidal rating CHEAL ([6]; rate 0.1250 kg/ha): 9.0 | Preemergence herbicidal rating CHEAL ([6]; rate 0.2500 kg/ha): 9.0 | herbicidal rating SETVI (SETVI (Foxtail, Green); rate 0.0156 kg/ha): 2.0 | herbicidal rating SETVI (SETVI (Foxtail, Green); rate 0.0313 kg/ha): 1.0 | herbicidal rating SETVI (SETVI (Foxtail, Green); rate 0.0625 kg/ha): 3.0 | Preemergence herbicidal rating ABUTH (ABUTH (Velvetleaf) [7]; rate 0.0313 kg/ha): 1.0 | Preemergence herbicidal rating ABUTH (ABUTH (Velvetleaf) [7]; rate 0.0625 kg/ha): 1.0 | Preemergence herbicidal rating ABUTH (ABUTH (Velvetleaf) [7]; rate 0.1250 kg/ha): 6.0 | Preemergence herbicidal rating ABUTH (ABUTH (Velvetleaf) [7]; rate 0.2500 kg/ha): 9.0 | Preemergence herbicidal rating TRZAWR ([8]; rate 0.0313 kg/ha): 0.0 | Preemergence herbicidal rating TRZAWR ([8]; rate 0.0625 kg/ha): 0.0 | Preemergence herbicidal rating TRZAWR ([8]; rate 0.1250 kg/ha): 0.0 | Preemergence herbicidal rating TRZAWR ([8]; rate 0.2500 kg/ha): 1.0 | herbicidal rating CHEAL ([9]; rate 0.0156 kg/ha): 2.0 | herbicidal rating CHEAL ([9]; rate 0.0313 kg/ha): 6.0 | herbicidal rating CHEAL ([9]; rate 0.0625 kg/ha): 6.0 | herbicidal rating ABUTH (ABUTH (Velvetleaf) [10]; rate 0.0156 kg/ha): 9.0 | herbicidal rating ABUTH (ABUTH (Velvetleaf) [10]; rate 0.0313 kg/ha): 9.0 | herbicidal rating ABUTH (ABUTH (Velvetleaf) [10]; rate 0.0625 kg/ha): 9.0 | herbicidal rating ORYSAT (ORYSAT (Rice, Tebonnet); rate 0.0156 kg/ha): 1.5 | herbicidal rating ORYSAT (ORYSAT (Rice, Tebonnet); rate 0.0313 kg/ha): 1.5 | herbicidal rating ORYSAT (ORYSAT (Rice, Tebonnet); rate 0.0625 kg/ha): 2.0 | Preemergence herbicidal rating CASOB (CASOB (Sicklepod); rate 0.0313 kg/ha): 0.0 | Preemergence herbicidal rating CASOB (CASOB (Sicklepod); rate 0.0625 kg/ha): 0.0 | Preemergence herbicidal rating CASOB (CASOB (Sicklepod); rate 0.1250 kg/ha): 0.0 | Preemergence herbicidal rating CASOB (CASOB (Sicklepod); rate 0.2500 kg/ha): 1.0 | Preemergence herbicidal rating ZEAMX (ZEAMX (Corn, Field) [11]; rate 0.0313 kg/ha): 0.0 | Preemergence herbicidal rating ZEAMX (ZEAMX (Corn, Field) [11]; rate 0.0625 kg/ha): 0.0 | Preemergence herbicidal rating ZEAMX (ZEAMX (Corn, Field) [11]; rate 0.1250 kg/ha): 0.0 | Preemergence herbicidal rating ZEAMX (ZEAMX (Corn, Field) [11]; rate 0.2500 kg/ha): 0.0 | herbicidal rating ZEAMX (ZEAMX (Corn, Field) [12]; rate 0.0156 kg/ha): 4.0 | herbicidal rating ZEAMX (ZEAMX (Corn, Field) [12]; rate 0.0313 kg/ha): 4.0 | herbicidal rating ZEAMX (ZEAMX (Corn, Field) [12]; rate 0.0625 kg/ha): 4.0
